Experimental data from patent US12063914B2, “DNA sequence that increases odorant receptor representation in the olfactory system” (Research Foundation of the City University of New York, priority 2015, dated 2024).

Tests used:
M71 = biological target: T1, M71 (Mus musculus, UniProt Q60893); details: previous ex vivo data; liquid phase; cited from earlier work
T1 construct: from ex vivo analysis of genetically defined M71 OSNs in gene-targeted mice; host or cells: dendritic knobs of M71-expressing olfactory sensory neurons from gene-targeted mice
T1 sequence (Q60893 1-309): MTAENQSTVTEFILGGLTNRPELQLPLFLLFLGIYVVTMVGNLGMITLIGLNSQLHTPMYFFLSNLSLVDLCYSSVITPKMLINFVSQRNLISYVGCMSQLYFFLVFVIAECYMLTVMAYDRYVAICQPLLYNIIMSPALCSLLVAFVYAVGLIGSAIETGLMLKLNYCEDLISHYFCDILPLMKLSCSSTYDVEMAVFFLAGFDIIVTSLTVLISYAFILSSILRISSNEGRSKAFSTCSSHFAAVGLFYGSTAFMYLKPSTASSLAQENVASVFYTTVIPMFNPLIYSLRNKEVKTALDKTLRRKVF

M71 OR [1] = biological target: T2, M71 OR (Mus musculus, UniProt Q60893); assay: Two-bottle discrimination behavioral avoidance task (odor detection threshold) with 24dMACP; type: in vivo; details: naïve, 10^−6 dilution, 24 hr
T2 construct: the increase of OSNs expressing the M71 OR results in the coalescence of labeled axons; expressed in transfected cells; host or cells: olfactory sensory neurons of living transgenic mice (4•M71Cα, 5•M71Cα), made by pronuclear injection of the M71 minigene
T2 sequence (Q60893 1-309): T1 sequence (Q60893 1-309)

[2] = at 25° C.; cited from earlier work
M71 OR [3] = biological target: T2, M71 OR; assay: In vivo synaptophluorin (SpH) imaging of odor-evoked glomerular activity in 4•M71Cα mice; details: for efficacy [(dF/F)max]: 0.44 uM
Description: Because the M71 OR is dorsally expressed in the olfactory bulb, any cloned OR using the M71 transgenic backbone will coalesce its axons onto dorsally located glomeruli, which makes them accessible for optical imaging. Optical imaging was therefore used to functionally characterize transgenic M71 projections in the OB. To examine their functional properties odor-evoked activity was imaged from the OBs of mice expressing the genetically encoded activity reporter SpH in all mature OSNs. Simultaneously recordings were obtained from mice that are either hemizygous or homozygous for 4•M71Cα (gene-targeted M71-GFP is out crossed) and heterozygous for SpH and identify red M71 glomeruli. Seven different M71-selective ligands were used from ex vivo analysis of genetically defined M71 OSNs in gene-targeted mice: three of these ligands produced responses by SpH imaging: Acetophenone (ACP), 4-methyl acetophenone (4MACP) and 2,4-dimethyl acetophenone (24dMACP) when delivered at different odor dilutions varying between 0% and 15%. The maximum change in fluorescence [(dF/F)max] per odor concentration was calculated for each compound over a 14 s trial period having a pre-odor (3 s), odor (4 s) and post-odor (4 s) acquisition. dF/F values for all glomeruli were calculated with a standardized 50 μm window, which is fully contained in all imaged glomeruli of both hemi and homo 4•M71Cα animals. (FIG. 2A, FIG. 2B and FIG. 2C: Each data point represents the average (dF/F). of 4-16 glomeruli imaged). […] All imaged mice are heterozygous for omp-SpH.
Olfactometry: Odors (purchased form Sigma Aldrich) were delivered using a custom built olfactometer controlled by an Arduino board with custom shields operating Teflon solenoids (Neptune Research) and connected to two Mass Flow Controllers (Alicat Scientific, Inc) to dilute the clean air (N2, max flow is 2 Lpm) and to dilute the odorized air (max flow is 300 SCCM). Nitrogen (N2) was used as the vapor carrier to avoid oxidation. Odor concentrations are expressed a % dilutions of saturated vapor and as molar saturated vapor concentration (μM s.v.), calculated using published vapor pressures at 25° Celsius (US EPA, Estimation Programs Interface Suite, v 4.0. Flow diluted odors were delivered at 2 Lpm mixed prior to the delivery site with air odorized with varying dilutions of odorant taken from the saturated headspace of pre-cleaned amber vials with white polypropylene closures and septum (J. G. Finneran) containing 99% pure odorants. To avoid contamination of the olfactometer, odorized air was never passed through the Teflon valves. Instead, odors were mixed with N2 in T-shaped mixing chambers (Neptune Research) and delivered to the animal's nose using an arduino controlled vacuum system. […] Output of the olfactometer was calibrated using the tracer odor Pinene and a photoionization detector (PID; Aurora Scientific).
In vivo SpH Imaging: Mice were anesthetized using Ketamine (100 mg/kg)/Xylazin (5 mg/kg) and maintained with Isoflurane (2.5% in 02) and immobilized using a stereotactic head holding device (Narishige, Inc.). Optical signals for SpH and mCherry were recorded using an ANDOR Neo 5.5 sCMOS camera connected to a NIKON AZ100 epifluorescence microscope (NIS Elements) with a 4× objective (numerical aperture 0.4). Excitation wavelengths of 475 nm for SpH and 575 nm for mCherry and emission of 520 nm for SpH and 635 nm for mCherry were used to obtain images of the dorsolateral bulb through thinned skull overlaying the bulb of a freely breathing animal. Each imaging trial consisted of a pre-odor (3 s), odor (4 s) and post-odor (4 s) acquisition, with a total acquisition time per trial of 14 s (including 3 s of valve switch delay). Using serial code, the arduino controlling the olfactometer was integrated in the NIS Elements software, so that the entire image acquisition sequence and flow-diluted odor delivery is controlled by the microscope software. […]

preference index (PI) for odorized water (M71 OR [1]; unconditioned 4•M71Cα Homo mice): 59% | preference index (PI) for odorized water (M71 OR [1]; unconditioned WT mice): 60% | glomerular activity (in vivo SpH imaging) (M71 OR [3]; 4•M71Cα animals, vapor phase, odor dilutions 0% to 15%): observed | average highest (dF/F)max (M71 OR [3]; hemizygous 4•M71Cα animals, ACP at 1.77 uM, 4MACP at 0.69 uM, 24dMACP at 0.66 uM): 4.15% | efficacy [(dF/F)max] (M71 OR [3]; hemizygous animals): 2.92% | efficacy [average (dF/F)max] (M71 OR [3]; hemizygous animals, delivered at the same concentration, ˜0.70 uM): 4.15% | highest efficacy [(dF/F)max] (M71 OR [3]; homozygous 4•M71Cα animals, ACP at 2.66 uM, 4MACP at 0.69 uM, 24dMACP at 0.46 uM): 4.92% | average efficacy (of all concentrations and odors) (M71 OR [3]; homozygous animals): 4.92% | efficacy [(dF/F)max] (M71 OR [3]; homozygous animals): 4.92%
Structure (SMILES): CC(=O)c1ccc(C)cc1C [24dMACP, 2,4-dimethyl acetophenone]
elicit a M71 response ex vivo (M71): did | saturated vapor pressure (Ps) [2]: 0.0811 mmHg
